Reference: publication PMC9848300, “Discovery of novel enasidenib analogues targeting inhibition of mutant isocitrate dehydrogenase 2 as antileukaemic agents” (Journal of Enzyme Inhibition and Medicinal Chemistry, 2023)

Experiments:
[1] = test system: MDA-MB-231/ATCC; test: NCI 60 antitumor screening (single dose / five doses); format: cell-based; conditions: Homo sapiens; MDA-MB-231/ATCC (breast cancer), single dose 10 μM; read-out: Growth inhibition percentage (GI %)
[2] = test system: K-562; test: as above; format: cell-based; conditions: Homo sapiens, K562; K-562 (leukaemia), single dose 10 μM; read-out: Growth inhibition percentage (GI %)
[3] = test system: COLO 205; test: as above; format: cell-based; conditions: Homo sapiens; COLO 205 (colon cancer), single dose 10 μM; read-out: Growth inhibition percentage (GI %)
[4] = test system: UACC-62; test: as above; format: cell-based; conditions: Homo sapiens; UACC-62 (melanoma), single dose 10 μM; read-out: Growth inhibition percentage (GI %)
[5] = test system: MOLT-4; test: as above; format: cell-based; conditions: Homo sapiens; MOLT-4 (leukaemia), single dose 10 μM; read-out: Growth inhibition percentage (GI %)
[6] = test system: UO-31; test: as above; format: cell-based; conditions: Homo sapiens; UO-31 (renal cancer), single dose 10 μM; read-out: Growth inhibition percentage (GI %)
[7] = test system: SF-268; test: NCI 60 antitumor screening (single dose); format: cell-based; conditions: Homo sapiens; SF-268 (CNS cancer), single dose 10 μM; read-out: Growth inhibition percentage (GI %)
Method in brief: (§1)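 NCI-60 protocol: single 10 μM dose against each cell line, run in triplicate. Percent growth (G%) of treated cells measured and growth inhibition reported as GI% = 100 − G%; panel mean also given.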

[8] = test system: OVCAR-3; test: NCI 60 antitumor screening (single dose); format: cell-based; conditions: Homo sapiens; OVCAR-3 (ovarian cancer), single dose 10 μM; read-out: Growth inhibition percentage (GI %)
Method in brief: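 At one concentration (10 μM), compounds are run in triplicate on 60 human cancer lines per the NCI method. Treated-cell growth is recorded as G%. Reported inhibition equals 100 − G%.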

[9] = test system: NCI-H460; test: NCI 60 antitumor screening (single dose); format: cell-based; conditions: Homo sapiens; NCI-H460 (non-small cell lung cancer), single dose 10 μM; read-out: Growth inhibition percentage (GI %)
Method in brief: as §1

[10] = test system: SK-MEL-2; test: NCI 60 antitumor screening (single dose / five doses); format: cell-based; conditions: Homo sapiens; SK-MEL-2 (melanoma), single dose 10 μM; read-out: Growth inhibition percentage (GI %)
[11] = test system: SK-MEL-5; test: as above; format: cell-based; conditions: Homo sapiens; SK-MEL-5 (melanoma), single dose 10 μM; read-out: Growth inhibition percentage (GI %)
[12] = test system: A498; test: as above; format: cell-based; conditions: Homo sapiens; A498 (renal cancer), single dose 10 μM; read-out: Growth inhibition percentage (GI %)
[13] = test system: SF-539; test: as above; format: cell-based; conditions: Homo sapiens; SF-539 (CNS cancer), single dose 10 μM; read-out: Growth inhibition percentage (GI %)
[14] = test system: HOP-92; test: as above; format: cell-based; conditions: Homo sapiens; HOP-92 (non-small cell lung cancer), single dose 10 μM; read-out: Growth inhibition percentage (GI %)
[15] = test system: SR; test: as above; format: cell-based; conditions: Homo sapiens; SR (leukaemia), single dose 10 μM; read-out: Growth inhibition percentage (GI %)
[16] = test system: SK-MEL-28; test: as above; format: cell-based; conditions: Homo sapiens; SK-MEL-28 (melanoma), single dose 10 μM; read-out: Growth inhibition percentage (GI %)
[17] = test system: CCRF-CEM; test: as above; format: cell-based; conditions: Homo sapiens; CCRF-CEM (leukaemia), single dose 10 μM; read-out: Growth inhibition percentage (GI %)
[18] = test system: 786-0; test: as above; format: cell-based; conditions: Homo sapiens, 786-0, 786-0 (renal cancer), single dose 10 μM; read-out: Growth inhibition percentage (GI %)
[19] = test system: MDA-MB-435; test: as above; format: cell-based; conditions: Homo sapiens; MDA-MB-435 (melanoma), single dose 10 μM; read-out: Growth inhibition percentage (GI %)
[20] = test system: MDA-MB-468; test: as above; format: cell-based; conditions: Homo sapiens; MDA-MB-468 (breast cancer), single dose 10 μM; read-out: Growth inhibition percentage (GI %)
[21] = test system: HT29; test: as above; format: cell-based, human; conditions: Homo sapiens, HT-29; HT29 (colon cancer), single dose 10 μM; read-out: Growth inhibition percentage (GI %)
[22] = test system: IGROV1; test: as above; format: cell-based; conditions: Homo sapiens, IGROV-1; IGROV1 (ovarian cancer), single dose 10 μM; read-out: Growth inhibition percentage (GI %)
[23] = test system: SN 12C; test: as above; format: cell-based; conditions: Homo sapiens, SN12C; SN 12C (renal cancer), single dose 10 μM; read-out: Growth inhibition percentage (GI %)
[24] = test system: UACC-257; test: as above; format: cell-based; conditions: Homo sapiens; UACC-257 (melanoma), single dose 10 μM; read-out: Growth inhibition percentage (GI %)
[25] = test system: EKVX; test: as above; format: cell-based; conditions: Homo sapiens; EKVX (non-small cell lung cancer), single dose 10 μM; read-out: Growth inhibition percentage (GI %)
[26] = test system: ACHN; test: as above; format: cell-based; conditions: Homo sapiens; ACHN (renal cancer), single dose 10 μM; read-out: Growth inhibition percentage (GI %)
[27] = test system: MALME-3M; test: as above; format: cell-based; conditions: Homo sapiens; MALME-3M (melanoma), single dose 10 μM; read-out: Growth inhibition percentage (GI %)
[28] = test system: SW-620; test: as above; format: cell-based, human; conditions: Homo sapiens; SW-620 (colon cancer), single dose 10 μM; read-out: Growth inhibition percentage (GI %)

| Compound | inhibition at 10 µM [1] | inhibition at 10 µM [2] | inhibition at 10 µM [3] | inhibition at 10 µM [4] | inhibition at 10 µM [5] | inhibition at 10 µM [6] | inhibition at 10 µM [7] | inhibition at 10 µM [8] | inhibition at 10 µM [9] | inhibition at 10 µM [10] | inhibition at 10 µM [11] | inhibition at 10 µM [12] | inhibition at 10 µM [13] | inhibition at 10 µM [14] | inhibition at 10 µM [15] | inhibition at 10 µM [16] | inhibition at 10 µM [17] | inhibition at 10 µM [18] | inhibition at 10 µM [19] | inhibition at 10 µM [20] | other results |
| --- | --- | --- | --- | --- | --- | --- | --- | --- | --- | --- | --- | --- | --- | --- | --- | --- | --- | --- | --- | --- | --- |
| Oc1ccccc1/C=N/Nc1nc(N/N=C/c2ccccc2O)nc(N2CCCCC2)n1 [compound 7a, 2-[(1e)-(2-{4-[(E)-2-[(2-Hydroxyphenyl)methylidene]hydrazin-1-yl]-6-(piperidin-1-yl)-1,3,5-triazin-2-yl}hydrazin-1-ylidene)methyl] phenol] | 34.5% | 61.8% | 75.5% | 29.7% | 59.1% | 51.7% | 45.7% | 80.8% | 60.5% | 30.8% | 25.6% | 17% | 40.6% | 21.6% | 60.2% | 36.6% | 78.3% | 26.8% | 30.9% | 36.2% | inhibition at 10 µM [21]: 54.7%; inhibition at 10 µM [22]: 54.8%; inhibition at 10 µM [23]: 40.5%; inhibition at 10 µM [24]: 20.9%; inhibition at 10 µM [25]: 69.9%; inhibition at 10 µM [26]: 63.1%; inhibition at 10 µM [27]: 33.1%; inhibition at 10 µM [28]: 32.2% |
| Brc1cccc(/C=N/Nc2nc(N/N=C/c3cccc(Br)c3)nc(N3CCCCC3)n2)c1 [compound 7c, 2,4-Bis[(E)-2-[(3-Bromophenyl)methylidene]hydrazin-1-yl]-6-(piperidin-1-yl)-1,3,5-triazine] | -8.36% | 11.2% | -5.18% | 14.5% | 31.6% | 20.2% | -5.8% | 0.95% | -2.41% | -2.13% | 28.6% | 12.2% | -6.24% | -12.8% | 12.9% | 0.82% | 18.7% | 4.36% | 4.57% | 9.99% | inhibition at 10 µM [21]: 3.98%; inhibition at 10 µM [22]: -0.7%; inhibition at 10 µM [23]: -1.41%; inhibition at 10 µM [24]: -4.98%; inhibition at 10 µM [25]: 22.4%; inhibition at 10 µM [26]: -5.5%; inhibition at 10 µM [27]: 15.1%; inhibition at 10 µM [28]: -8.28% |
| Clc1cccc(/C=N/Nc2nc(N/N=C/c3cccc(Cl)c3)nc(N3CCCCC3)n2)c1 [compound 7d, 2,4-Bis[(E)-2-[(3-Chlorophenyl)methylidene]hydrazin-1-yl]-6-(piperidin-1-yl)-1,3,5-triazine] | -16.1% | 17% | -1.88% | 20.8% | 31.3% | 23.2% | 8.03% | 8.59% | 3.48% | 13.9% | 19.4% | 7.8% | -5.25% | -7.89% | 25.4% | 3.79% | 25% | 4.76% | 9.61% | 23.7% | inhibition at 10 µM [21]: 14.4%; inhibition at 10 µM [22]: -4.79%; inhibition at 10 µM [23]: 7.63%; inhibition at 10 µM [24]: -11.1%; inhibition at 10 µM [25]: 21.6%; inhibition at 10 µM [26]: -1.44%; inhibition at 10 µM [27]: -9.06%; inhibition at 10 µM [28]: -2.95% |
| Fc1cccc(/C=N/Nc2nc(N/N=C/c3cccc(F)c3)nc(N3CCCCC3)n2)c1 [compound 7e, 2,4-Bis[(E)-2-[(3-Fluorophenyl)methylidene]hydrazin-1-yl]-6-(piperidin-1-yl)-1,3,5-triazine] | -0.43% | 38.6% | -0.08% | 25.8% | 40.4% | 22.1% | 0.36% | 10.6% | 8.63% | 0.55% | 32.1% | 15.7% | -3.16% | -16% | 31.9% | 9.32% | 41.3% | 10.5% | 8.23% | 9.17% | inhibition at 10 µM [21]: 8.7%; inhibition at 10 µM [22]: 9.61%; inhibition at 10 µM [23]: 5.08%; inhibition at 10 µM [24]: -0.08%; inhibition at 10 µM [25]: 29.3%; inhibition at 10 µM [26]: 8.6%; inhibition at 10 µM [27]: -0.5%; inhibition at 10 µM [28]: -7.5% |
